Drawing on PubChem BioAssay (NCI), this text covers TGI and GI50 for twelve compounds.

Assay in all cases: NCI-60 cell line screen, 48 h
The subject of test [1] is EKVX NSCLC.
Test [2] relates to OVCAR-5 ovarian.
The subject of test [3] is RXF 393 renal.
Test [4] relates to HOP-62 NSCLC.
Test [5] has as its system SK-OV-3 ovarian.
The subject of test [6] is SF-268 CNS.
Test [7] has as its system RPMI-8226 leukemia.
Test [8] has as its system MCF7 breast.
In test [9] the test system is M14 melanoma.
In test [10] the test system is MDA-MB-231 breast.

The structures appear in SMILES notation. Values joined by “and” are separate entries in the source; they are usually repeats but may differ in a detail not shown here. Equal values may be shown once.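 Tested at 5 concentrations; 48 h exposure; 96-well plates; endpoints linearly interpolated, else capped at highest concentration. Here, GI50 denotes the concentration required for 50% inhibition of growth. Definition used: TGI = concentration required for complete inhibition of growth.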 A value given as a limit tells only on which side of the number the result lay.

For the compound `NC(=O)NN=C(CS)CS`, the TGI was 33.7 µM in test [1]; 55.7 µM in test [2]; more than 74.4 µM in [3]; 41.9 µM in [4]; more than 100 µM in test [5]; more than 79.9 µM in test [6]. The TGI is more than 100 µM in [7] and more than 69 µM in test [8].
Take `CN(C)CCCNc1ccc2ncn3c4ccccc4c(=O)c1c23`: the TGI in [9] is 41.6 µM; in [2] it was 38.5 µM; in [4] it was more than 100 µM; in [5], more than 100 µM; in test [6], 40.4 µM; in [7] it was 26.9 µM.
On to `O=c1ccc2cc(O)c(O)cc2o1`, for which the TGI in [9], in test [1], in [2], in test [3], in test [4] and in test [5] was more than 100 µM in each case. Moreover, the TGI in [6], in [7], in test [10] and in [8] was more than 100 µM each time.
`Cc1ccc(S(=O)(=O)NCCSCCNS(=O)(=O)c2ccc(C)cc2)cc1`: the TGI in test [9], in [3], in [5], in test [6], in [10] and in test [8] was more than 100 µM in each case.
For the compound `COc1ccc([C@@H]2ON(C)[C@H]3CN(C)C(=O)[C@@H]23)cc1`, the TGI in test [9], in test [2], in test [4], in test [5], in [7] and in test [10] was more than 100 µM each time. In test [8], this compound returned a TGI of more than 100 µM.
On to `C/C=C/[P+](c1ccccc1)(c1ccccc1)c1ccccc1`, for which the TGI stood at 27.2 µM in [9]; 13.5 µM in [1]; 33.2 µM in [2]; 41.6 µM in test [3]; 27.4 µM in test [4]; 10.5 µM in [5]. Also, the TGI in [6] was 17.1 µM; in [7], 0.898 µM; in [10] it was 14.4 µM; in test [8] it was more than 45.5 µM.
Regarding `O=C1c2c(c3c4ccccc4[nH]c3c3ccc4ccccc4c23)C(=O)N1CCN1CCCCC1`, the GI50 is 13.4 µM in test [1]; 1.52 µM in test [2]; 1.47 µM in [3]; 1.06 µM in [4]; 0.801 µM in [5]; 1.15 µM in test [6]. The GI50 in test [7] was 1.78 µM; in [10] it was 1.95 µM; in test [8], 0.0388 µM. Also, the TGI is more than 100 µM in test [1]; 3.49 µM in [2]; 3.01 µM in [3]; 3.43 µM in test [4]; more than 100 µM in test [5]; more than 100 µM in test [6]. Besides, the results for the TGI in test [7], in test [10] and in [8] were 4.7 µM, 5.08 µM and 2.34 µM, respectively.
Consider `Cc1ccc(Oc2ccc(C)cc2[N+](=O)[O-])cc1`, for which the TGI was more than 100 µM in test [9]; more than 100 µM in [1]; more than 100 µM in [2]; 92.7 µM in [3]; more than 100 µM in [4]; more than 100 µM in test [5]. Besides, the TGI in test [6] and in [7] was more than 100 µM in each case.
Consider `COc1ccc(-c2c3c(nc4nc(SCCc5ccccc5)nc(N)c24)CCCC3)cc1OC`, for which the TGI in test [9], in test [1], in test [2], in [3], in [4] and in test [5] was more than 100 µM throughout. Moreover, the TGI in [6], in [7], in test [10] and in test [8] was more than 100 µM in each case.
Turning to `CCCCCCCSc1nc2c(C(=O)OCC)ncn2c2ccccc12`, the TGI in test [9], in [1], in test [2], in test [3], in test [4] and in test [5] was more than 100 µM each time. For the same compound, the TGI in [6] and in [7] was more than 100 µM each time.
Turning to `COc1ccc(N2C(=O)C3c4[nH]c5c(C)cccc5c4C4CCC(C(C)(C)C)CC4C3C2=O)cc1` (stereo unspecified), the TGI in test [9], in [1], in [2], in test [3], in test [4] and in [5] was more than 10 µM throughout. In addition, the TGI in test [6], in [7], in test [10] and in test [8] was more than 10 µM each time.
`CC(=O)C(O)N1C(=O)C=CC1=O` (stereo unspecified): the GI50 in [1] is 21.2 µM and 18.7 µM; in test [2] it was 10500 µM; in test [3] it was 13000 µM; in [7], 12.8 µM; in test [10], 13400 µM; in test [8], 14200 µM. The TGI is 25 µM and 33.5 µM and 12.3 µM in test [1]; 17.9 µM and 51.8 µM in test [6]; 35 µM and 5.64 µM in test [7]; > 25 µM and 32900 µM in test [8].
